From patent US12686678B2, “Crystal form of Lanifibranor, preparation method therefor, and use thereof” (INVENTIVA, priority 2020, dated 2026)

Columns and labels:
Assay type in all cases: physicochemical
[1] = Physical and chemical stability on storage (XRPD for crystalline form, HPLC for purity)
Description: A certain amount of Form CSI of the present disclosure was stored under different conditions of 25° C./60% RH, 40° C./75% RH, and 60° C./75% RH. Crystalline form and chemical purity were checked by XRPD and HPLC, respectively. Open packaged: Put the sample into a glass vial, cover the vial with aluminum toil, and punch 5-10 holes in the foil. Sealed packaged: Put the sample into a glass vial, cap the vial tightly, and seal the vial in an aluminum foil bag. A certain amount of Form CSII of the present disclosure was stored under different conditions of 25° C./60% RH, 40° C./75% RH, and 60° C./75% RH. Crystalline form and chemical purity were checked by XRPD and HPLC, respectively. A certain amount of Form CSIV of the present disclosure was stored under different conditions of 25° C./60% RH, 40° C./75% RH, and 60° C./75% RH. Crystalline form and chemical purity were checked by XRPD and HPLC, respectively.

[2] = Hygroscopicity by dynamic vapor sorption (DVS); details: for Weight gain from 0 to 60% RH / Weight gain from 0 to 70% RH: DVS, 25° C.; for Crystalline state after DVS: XRPD before and after DVS test
Description: Dynamic Vapor Sorption (DVS) was measured via an SMS (Surface Measurement Systems Ltd.) intrinsic DVS instrument. The instrument control software is DVS-Intrinsic control software. Typical Parameters for DVS test are as follows: • Temperature: 25° C. • Gas and flow rate: N2, 200 mL/min • RH range: 0% RH to 95% RH Dynamic vapor sorption (DVS) analyzer was applied to evaluate the hygroscopicity of amorphous with a certain amount of sample. The weight gains at each relative humidity were recorded in a cycle of 0-95% RH-0. […] Dynamic vapor sorption (DVS) analyzer was applied to evaluate hygroscopicity of Form CSI with a certain amount of sample. The weight gains at each relative humidity were recorded in a cycle of 0-95% RH-0. Dynamic vapor sorption (DVS) analyzer was applied to evaluate hygroscopicity of Form CSII with a certain amount of sample. The weight gains at each relative humidity were recorded in a cycle of 50% RH-95% RH-0%-95% RH. Dynamic vapor sorption (DVS) analyzer was applied to evaluate hygroscopicity of Form CSIV and prior art amorphous with certain amounts of samples. The weight gains at each relative humidity were recorded in a cycle of 0-95% RH-0.

[3] = Particle size distribution (Mastersizer 3000, wet mode); details: after 30 seconds of ultrasonication, Isopar G
Description: The particle size distribution data in the present disclosure were acquired by an Mastersizer 3000 laser particle size analyzer of Malvern. The test was carried out in wet mode, using a Hydro MV dispersion device, and the dispersant was Isopar G. The parameters are shown in Table 3. A certain amount of Form CSI was added into a glass vial with about a certain volume of Isopar G (containing 0.2% lecithin). The mixture was mixed thoroughly and transferred into the Hydro MV dispersing device. The experiment was started when the obscuration was in appropriate range. The particle size distribution was tested after 30 seconds of ultrasonication.

[4] = Flowability (compressibility index from bulk and tapped density)
Description: Compressibility index is usually utilized to evaluate the flowability of powder or granules during the drug product process. Compressibility index test method is as follows: a certain amount of powder was added into a measuring cylinder and bulk volume was recorded. Then the powder was tapped to make it in the tightest state and the tapped volume was recorded. The bulk density (ρ0) and tapped density (ρf) were calculated and compressibility index was calculated according to c=(ρf−ρ0)/ρf.

[5] = Adhesiveness (material sticking to punch, ENERPAC manual tablet press); details: about 30 mg, φ8 mm round tooling, 10 kN, held 30 s
Description: ENERPAC manual tablet press was used for testing. Approximately 30 mg of Form CSI was weighed and then added into the dies of φ8 mm round tooling, compressed at 10 kN and held for 30 s. The punch was weighed and the amount of material sticking to the punch was calculated. The compression was repeated twice and the maximum amount and average amount of material sticking to the punch during the compression were recorded. […] ENERPAC manual tablet press was used for testing. Approximately 30 mg of Form CSII was weighed and then added into the dies of φ8 mm round tooling, compressed at 10 kN and held for 30 s. The punch was weighed and amount of material sticking to the punch was calculated. The compression was repeated twice and the maximum amount and average amount of material sticking to the punch during the compression were recorded. […] ENERPAC manual tablet press was used for testing. Approximately 30 mg of Form CSIV was weighed and then added into the dies of φ8 mm round tooling, compressed at 10 KN and held for 30 s. The punch was weighed and amount of material sticking to the punch was calculated. The compression was repeated twice and the maximum amount and average amount of material sticking to the punch during the compression were recorded.

[6] = Appearance of powder on sulphuric acid paper
From the text: A certain amount of Form CSI was weighed and put on sulphuric acid paper to observe the appearance The appearance of Form CSI is shown in FIG. 15. […] A certain amount of Form CSII was weighed and put in sulphuric acid paper, and the powder state was observed. […] A certain amount of Form CSIV was weighed and put in sulphuric acid paper, and the powder state was observed.

[7] = Physical stability upon tableting under different pressures (XRPD)
From the text: A certain amount of Form CSII was compressed into tablet under different pressures with suitable tableting die. Crystalline form before and after tableting were checked by XRPD. […] A certain amount of Form CSIV was compressed into tablet under different pressures with suitable tableting die. Crystalline form before and after tableting were checked by XRPD.

[8] = Physical stability upon manual grinding (XRPD); details: ground manually for 5 minutes in a mortar
Description: Form CSII was grounded manually for 5 minutes in a mortar. […] Form CSIV was grounded manually for 5 minutes in a mortar.

[9] = 25° C./60% RH, open packaged, 6 months
[10] = 25° C./60% RH, sealed packaged, 6 months
[11] = 40° C./75% RH, open packaged, 6 months
[12] = 40° C./75% RH, sealed packaged, 6 months
[13] = 60° C./75% RH, open packaged, 3 months
[14] = 60° C./75% RH, sealed packaged, 3 months
[15] = 25° C./60% RH, open packaged, 3 months
[16] = 25° C./60% RH, sealed packaged, 3 months
[17] = 40° C./75% RH, open packaged, 3 months
[18] = 40° C./75% RH, sealed packaged, 3 months
[19] = 60° C./75% RH, open packaged, one month
[20] = 60° C./75% RH, sealed packaged, one month

Row | Time for which the form is stable (crystalline state doesn't change) ([1]; 25° C./60% RH) | Time for which the form is stable (crystalline state doesn't change) ([1]; 40° C./75% RH) | Time for which the form is stable (crystalline state doesn't change) ([1]; 60° C./75% RH) | Weight gain from 0 to 60% RH ([2]; 0 to 60% RH) | Weight gain from 0 to 70% RH ([2]; 0 to 70% RH) | Crystalline state after DVS [2] | Average adhesion amount [5] | Form after storage [1, 15] | Purity change [1, 15] | Form after storage [1, 16] | Purity change [1, 16] | Form after storage [1, 17] | Purity change [1, 17] | Form after storage [1, 18] | Purity change [1, 18] | Form after storage [1, 19] | Purity change [1, 19] | Solid form after tableting ([7]; Pressure 5 kN) | Solid form after tableting ([7]; Pressure 10 kN) | SMILES | Appearance of powder [6] | other results
1 | at least 6 months | at least 6 months | at least 3 months | 0.17% | 0.17% | remains unchanged | 0.45 mg | – | – | – | – | – | – | – | – | – | – | – | – | O=C(O)CCCc1cc2cc(Cl)ccc2n1S(=O)(=O)c1ccc2ncsc2c1 [Form CSI, 5-Chloro-1-[(6-benzothiazolyl)sulfonyl]-1H-indole-2-butanoic acid] | powdery with uniformly dispersed and has no adhesion phenomenon | Form after storage [1, 9]: Form CSI; Purity change [1, 9]: 0.02%; Form after storage [1, 10]: Form CSI; Purity change [1, 10]: 0.03%; Form after storage [1, 11]: Form CSI; Purity change [1, 11]: 0.05%; Form after storage [1, 12]: Form CSI; Purity change [1, 12]: 0.01%; Form after storage [1, 13]: Form CSI; Purity change [1, 13]: 0.08%; Form after storage [1, 14]: Form CSI; Purity change [1, 14]: 0.07%; D10 [3]: 0.725 μm; D50 [3]: 1.89 μm; D90 [3]: 7.15 μm; MV [3]: 4.54 μm; Bulk density [4]: 0.405 g/mL; Tapped density [4]: 0.526 g/mL; Flowability ([4]; class by compressibility index, ICH Q4B Annex 13): Passable (21-25)
2 | at least 3 months | at least 3 months | at least one month | 0.21% | 0.27% | remains unchanged | 0.20 mg | Form CSII | 0.09% | Form CSII | 0.06% | Form CSII | 0.07% | Form CSII | 0.01% | Form CSII | 0.05% | Form CSII | Form CSII | O=C(O)CCCc1cc2cc(Cl)ccc2n1S(=O)(=O)c1ccc2ncsc2c1 [Form CSII, 5-Chloro-1-[(6-benzothiazolyl)sulfonyl]-1H-indole-2-butanoic acid] | powdery with uniformly dispersed and has no adhesion phenomenon | Solid form after tableting ([7]; Pressure 20 kN): Form CSII; Crystalline state after grinding [8]: remains unchanged
3 | at least 3 months | at least 3 months | at least one month | 0.23% | 0.27% | remains unchanged | 0.05 mg | Form CSIV | 0.02% | Form CSIV | 0.04% | Form CSIV | 0.00% | Form CSIV | 0.03% | Form CSIV | 0.04% | Form CSIV | Form CSIV | O=C(O)CCCc1cc2cc(Cl)ccc2n1S(=O)(=O)c1ccc2ncsc2c1 [Form CSIV, 5-Chloro-1-[(6-benzothiazolyl)sulfonyl]-1H-indole-2-butanoic acid] | powdery with uniformly dispersed and has no adhesion phenomenon | Form after storage [1, 20]: Form CSIV; Purity change [1, 20]: 0.06%; Solid form after tableting ([7]; Pressure 20 kN): Form CSIV; Crystalline state after grinding [8]: remains unchanged
4 | – | – | – | 0.94% | 1.18% | – | – | – | – | – | – | – | – | – | – | – | – | – | – | O=C(O)CCCc1cc2cc(Cl)ccc2n1S(=O)(=O)c1ccc2ncsc2c1 [amorphous, 5-Chloro-1-[(6-benzothiazolyl)sulfonyl]-1H-indole-2-butanoic acid, reference compound] | – | Weight gain of amorphous relative to that of Form CSI ([2]; 0 to 60% RH): about 6 times; Weight gain of amorphous relative to that of Form CSII ([2]; 0 to 60% RH): about 4 times; Weight gain of amorphous relative to that of Form CSIV ([2]; 0 to 60% RH and 0 to 70% RH): about 4 times; Weight gain of amorphous relative to that of Form CSI ([2]; 0 to 70% RH): ~7 times; Weight gain of amorphous relative to that of Form CSII ([2]; 0 to 70% RH): ~5 times; Weight gain from 0 to 60% RH ([2]; 0 to 60% RH, listed as prior art amorphous): 0.94%; Weight gain from 0 to 70% RH ([2]; 0 to 70% RH, listed as prior art amorphous): 1.18%
